Read-outs that look alike come from different tables or passages of the source. Bridges are numbered along the chain shown (N, C = ends). Where no end group is shown, it is not given here.
Columns and labels:
[1] = molecular target: T1, homomeric rASIC1a (rat ASIC1a) (Rattus norvegicus, UniProt P55926); assay: TEVC recordings, homomeric rASIC1a; assay type: cell-based; conditions: for increase in desensitization rate of rASIC1a: pH 5.5-induced currents, 1 µM peptide, decay constant τdes, single exponential fit, 8 to 17 cells; for IC50: peptide applied 30 s before activation, Xenopus laevis oocytes, mean ± S.E.M., n = 6, read-out: half-maximal inhibitory concentration (IC50); for Emax: pH stimulus 5.5, inhibition not complete, read-out: maximum effect (inhibition)
T1 construct: expressed in transfected cells; host or cells: Xenopus laevis oocytes, mRNA microinjected
T1 sequence (P55926 1-526): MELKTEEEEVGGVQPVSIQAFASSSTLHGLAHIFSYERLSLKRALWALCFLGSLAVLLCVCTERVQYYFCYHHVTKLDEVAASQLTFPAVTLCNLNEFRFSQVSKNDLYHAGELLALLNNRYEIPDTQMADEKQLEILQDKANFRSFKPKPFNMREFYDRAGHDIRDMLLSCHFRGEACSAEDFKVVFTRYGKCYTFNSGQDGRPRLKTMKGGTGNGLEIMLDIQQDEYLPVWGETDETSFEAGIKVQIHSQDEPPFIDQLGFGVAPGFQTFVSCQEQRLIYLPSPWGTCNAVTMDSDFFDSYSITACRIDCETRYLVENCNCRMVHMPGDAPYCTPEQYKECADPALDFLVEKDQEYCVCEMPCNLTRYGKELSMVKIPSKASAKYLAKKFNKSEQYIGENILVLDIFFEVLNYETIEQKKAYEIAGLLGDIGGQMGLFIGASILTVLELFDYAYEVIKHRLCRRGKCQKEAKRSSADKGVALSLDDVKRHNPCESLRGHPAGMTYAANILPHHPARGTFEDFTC
Protocol: The functional activity of Mamb-AL and its comparison with wild-type Mamb were assessed using two-electrode voltage clamp (TEVC) recordings in Xenopus laevis oocytes heterologously expressing rASIC1a.
Figure 3 The inhibitory effect of Mamb-AL on rASIC1a exceeds that of Mamb. (A,C) Representative current traces showing the effects of various concentrations of Mamb (left panels) and Mamb-AL (right panels) on rASIC1a at pH stimuli of 5.5 (A) and 6.7 (C). Currents were induced by pH stimuli after a conditioning pH of 7.4, with peptides applied for 30 s prior to channel activation. The holding potential (Vh) was set to −50 mV, and the interval between applications varied from 1 to 2 min. (B,D) Dose–response curves for the inhibitory effects of Mamb and Mamb-AL on rASIC1a at pH stimuli of 5.5 (B) and 6.7 (D). Each data point represents measurements from six cells. (E) Bar plot showing statistical analysis of IC50 values calculated from the dose–response fits for the peptides’ inhibitory effects on individual cells (n = 6). **** p< 0.001; one-way ANOVA followed by Dunnett’s post hoc test. (F) Statistical analysis of the effects of 1 µM peptide concentration on the decay constant (τdes) at a pH stimulus of 5.5. Each data point represents data from 8 to 17 cells. * p< 0.05, **** p< 0.001 compared with control, paired t-test; & p< 0.05 comparing Mamb and Mamb-AL, unpaired t-test. Data are presented as mean ± S.E.M.
Female X.laevis frogs were anesthetized with 0.17% ethyl 3-amino-benzoate methane sulfonate (MS222). A small ovarian section was surgically removed via an abdominal incision and placed in ND96 medium (96 mM NaCl, 2 mM KCl, 1.8 mM CaCl2, 1 mM MgCl2, and 5 mM HEPES, pH 7.4, adjusted with NaOH). […] Each animal underwent surgeries at intervals of no less than three months. Connective tissue and follicular sheaths were removed by incubating ovarian tissue in calcium-free ND96 medium containing collagenase (1 mg/mL) for 2 h at 21 °C. Healthy, mature stage IV and V oocytes were selected and stored in ND96 medium. PCi plasmids encoding rat ASIC1a, ASIC1b, or ASIC3 served as templates for synthesizing the corresponding messenger RNAs (mRNAs), which were then microinjected into oocytes (0.2–10 ng per oocyte) using a Nanolitre 2000 microinjection system (World Precision Instruments, Sarasota, FL, USA) 16–18 h after oocyte isolation. Injected oocytes were incubated in ND96 medium supplemented with penicillin and gentamicin (50 µg/mL each) at 18 °C for 2–3 days, followed by storage at 14 °C for up to 7 days.
(§1) Whole-cell ASIC currents were measured using the two-electrode voltage clamp (TEVC) method with a GeneClamp 500 amplifier (Axon Instruments, Union City, NJ, USA). The holding potential maintained at –50 mV. Glass microelectrodes (0.5–2.5 MΩ) were filled with 3 M KCl solution, and ND96 (pH 7.4) was used as the external bath solution. ASIC currents were activated by rapidly switching the external solution from ND96 to either ND96 containing 10 mM MOPS (pH 6.7) or ND96 containing 10 mM MES (pH 5.5). Solution exchange was controlled using a custom-built computer-driven valve system. Data were filtered at 10 Hz and digitized at 100 Hz using an L780M ADC (LCard, Moscow, Russia). Peptides Mamb and Mamb-AL were applied for 30 s at pH 7.4 prior to acid stimulation of the channels.
(§2) Electrophysiological and behavioral data were analyzed using OriginPro 8.6.0 (OriginLab, Washington, DC, USA). […] The rate of current decay was fitted using a single exponential decay function: F(x) = A*eˆ(−x/τdes) + A0, where A0 is the minimal current response and τdes is the decay constant. Statistical significance between the Mamb and Mamb-AL groups was determined using an unpaired t-test. Data are presented as mean ± SEM.

[2] = system: heteromeric rat ASIC1a/3 channels (rASIC1a/3); assay: TEVC recordings, heteromeric rASIC1a/3; assay type: cell-based; conditions: for inhibition of rASIC1a/3: 100 nM, pH 5.5 stimulus, conditioning pH 7.4, % of control currents, n = 5, p < 0.05 Mamb-AL vs Mamb, unpaired t-test
Description: Figure 4 The inhibitory effect of Mamb-AL on other ASIC1-containing channels exceeds that of Mamb. (A,C) Representative current traces showing the effects of various concentrations of Mamb (left panels) and Mamb-AL (right panels) on homomeric rat ASIC1b (rASIC1b) (A) and heteromeric rat ASIC1a/3 (rASIC1a/3) channels (C). Currents were evoked by a pH 5.5 stimulus following a conditioning pH of 7.4, with peptides applied for 30 s prior to the pH stimulus. (B) Dose–response curves for the inhibitory effects of Mamb and Mamb-AL on rASIC1b. Each data point represents measurements from 5 to 7 cells. (D) Bar graph quantifying the inhibitory effects of Mamb and Mamb-AL on rASIC1a/3, shown as a percentage of the corresponding control currents (n = 5). Data are presented as mean ± SEM; * p< 0.05, unpaired t-test. […] Data are shown as mean ± SEM; ns indicates no significant difference vs. control (dotted horizontal line), paired t-test.
Female X.laevis frogs were anesthetized with 0.17% ethyl 3-amino-benzoate methane sulfonate (MS222). A small ovarian section was surgically removed via an abdominal incision and placed in ND96 medium (96 mM NaCl, 2 mM KCl, 1.8 mM CaCl2, 1 mM MgCl2, and 5 mM HEPES, pH 7.4, adjusted with NaOH). […] Each animal underwent surgeries at intervals of no less than three months. Connective tissue and follicular sheaths were removed by incubating ovarian tissue in calcium-free ND96 medium containing collagenase (1 mg/mL) for 2 h at 21 °C. Healthy, mature stage IV and V oocytes were selected and stored in ND96 medium. […]
(§3) Whole-cell ASIC currents were measured using the two-electrode voltage clamp (TEVC) method with a GeneClamp 500 amplifier (Axon Instruments, Union City, NJ, USA). […]
(§4) Electrophysiological and behavioral data were analyzed using OriginPro 8.6.0 (OriginLab, Washington, DC, USA). […] Statistical significance between the Mamb and Mamb-AL groups was determined using an unpaired t-test. […]

[3] = system: homomeric rat ASIC3 channels; assay: TEVC recordings, homomeric ASIC3; assay type: cell-based; conditions: pH stimulus; n = 5; ns vs control, paired t-test
Description: Figure 4 The inhibitory effect of Mamb-AL on other ASIC1-containing channels exceeds that of Mamb. (A,C) Representative current traces showing the effects of various concentrations of Mamb (left panels) and Mamb-AL (right panels) on homomeric rat ASIC1b (rASIC1b) (A) and heteromeric rat ASIC1a/3 (rASIC1a/3) channels (C). Currents were evoked by a pH 5.5 stimulus following a conditioning pH of 7.4, with peptides applied for 30 s prior to the pH stimulus. (B) Dose–response curves for the inhibitory effects of Mamb and Mamb-AL on rASIC1b. Each data point represents measurements from 5 to 7 cells. (D) Bar graph quantifying the inhibitory effects of Mamb and Mamb-AL on rASIC1a/3, shown as a percentage of the corresponding control currents (n = 5). Data are presented as mean ± SEM; * p< 0.05, unpaired t-test. […] Data are shown as mean ± SEM; ns indicates no significant difference vs. control (dotted horizontal line), paired t-test. […]
as §3, §4

ASIC = assay: TEVC recordings, ASIC1-containing channel not specified; assay type: cell-based, rat; conditions: channel and pH not given; for Hill coefficient: Hill equation fit
Protocol: as §1, §2

Sequence | greater inhibition of homomeric ASIC1a channels ([1]; compared with Mamb, pH not stated) | increase in desensitization rate of rASIC1a [1] | Mamb-AL outperformed Mamb (inhibition of rASIC1a) ([1]; pH 6.7, relative to Mamb) | IC50 ([1]; pH stimulus 5.5, conditioning pH 7.4, Vh −50 mV) | Emax [1] | complete inhibition ([1]; pH stimulus 6.7) | IC50 ([1]; pH stimulus 6.7, conditioning pH 7.4, Vh −50 mV) | inhibition of rASIC1a/3 [2] | increase in inhibition of heteromeric ASIC1a/3 channels ([2]; compared with Mamb) | effect on rat ASIC3 channels [3] | Hill coefficient (ASIC) | maximum inhibition (in words) (ASIC; compared with wild-type peptide)
LKCYQHGKVVTCHRDAKFCYHNTGLPFRNLKLILQGCSSSCSETENNKCCSTDRCNK (disulfide 3-19, 12-37, 41-49, 50-55 (inferred)) [Mamb-AL] | three-fold | 45% | more than threefold | 62 ± 9 nM | ~90% | 100% | 25 ± 3 nM | 32% | two-fold increase | neither wild-type Mamb nor Mamb-AL exhibited any detectable effects | 1.4 ± 0.1 | unable to fully block channel activity, leading to a reduced maximum inhibition rate
LKCFQHGKVVTCHRDMKFCYHNTGMPFRNLKLILQGCSSSCSETENNKCCSTDRCNK (disulfide 3-19, 12-37, 41-49, 50-55 (inferred)) [Mamb] |  | 24% |  |  | ~90% |  |  | 13% |  | neither wild-type Mamb nor Mamb-AL exhibited any detectable effects | 1.54 ± 0.03 | 
